Tested on: Staphylococcus aureus ATCC 33591
Test: Adherence of bacteria on catheter segments
Format: cell-based
Settings: against the tested organisms
Description: In addition to fibrinolytic activity, antimicrobial activity of the 1% LMW-DexS (8 kDa) treated catheters was evaluated. In this test, adherence of gram positive bacteria Staphylococcus aureus ATCC 33591, on the catheter segments having immobilized enzyme uPA stabilized with 1% LMW-DexS (8 kDa), along with the antimicrobial agents such as gentian violet (0.6%) and chlorhexidine dodecanoate was compared to similarly treated catheter segments but without the LMW-DexS (8 kDa) stabilized enzyme.

Row | Compound | antimicrobial activity after attachment of LMW-DexS (8 kDa) stabilized urokinase
1 | CN(C)c1ccc(C(=C2C=CC(=[N+](C)C)C=C2)c2ccc(N(C)C)cc2)cc1 [gentian violet] | not compromised
2 | CCCCCCCCCCCC(=O)O.NC(=NCCCCCCN=C(N)N=C(N)Nc1ccc(Cl)cc1)N=C(N)Nc1ccc(Cl)cc1 [chlorhexidine dodecanoate] | not compromised

Reference: patent publication US9333280B2, “Stabilized enzyme compositions” (Teleflex Medical Incorporated, priority 2009, dated 2016)
